Experimental data reported in patent US20250144049A1, “METHODS, COMPOSITIONS, AND USES RELATED TO THE TREATMENT AND PREVENTION OF LEIGH SYNDROME” (Stealth BioTherapeutics Inc., priority 2023, published 2025).

What was measured:
Type in all cases: in vivo
[1] = Pharmacokinetics of Compound 3 after repeated (5 days) subcutaneous dosing
Experimental: The volume of each dose delivered (mL/kg) was based on each individual animal's body weight. • This was a multiple dose terminal study dosed once per day over 5 days. Rats were taken down following their 5th and final dose. • Doses were administered in accordance with test facility standard operating procedures.
• Terminal blood samples were collected via cardiac puncture following inhalation anesthesia in accordance with test facility standard operating procedures. • Blood samples were collected into tubes with appropriate anticoagulant. Tubes were stored on wet ice until processed to plasma by centrifugation (3500 rpm at 5° C. for 10 minutes) within 20 minutes of collection. Sample aliquots of 100 μL were transferred into individual uniquely labeled matrix tubes and stored at nominal −80° C. until transferred to analytical chemistry for analysis. • Immediately following each terminal blood collection for all groups, animals were sacrificed and perfused with cold PBS. The following tissues were collected: heart and brain, in accordance with Table 4. • Plasma and tissue samples were processed for analysis by LC/MS/MS to determine the amounts/concentrations reported in the Figures.

[2] = test system: Ndufs4-KO mouse model of Leigh syndrome; test: Biomarker evaluation study in Ndufs4-KO mouse model of Leigh syndrome; settings: Ndufs4-KO mice
Experimental: Study design. A biomarker evaluation study was performed to test Compound 4 in a mouse model of Leigh syndrome (B6.129S4-Ndufs4^tm1.1Rpa/J; JAX Stock #027058). All studies were performed under the approved IACUC protocol at Jackson Laboratories Bar Harbor ME. Three groups of mice were included in this study: (1) wild-type (WT) C57BL/6J mice (n=8), each receiving 20 mg/kg Compound 4 subcutaneously once per day starting at postnatal age 21 days (P21); (2) Ndufs4-KO mice (homozygous knock outs (“HOM”)) (“HOM Veh”) (n=8), each receiving vehicle (5% Kolliphor-ELP in 1×PBS at a dosage of 10 mL/kg/day) subcutaneously once per day starting at P21; and (3) Ndufs4-KO mice (“HOM Comp. 4, 20 mg/kg”) (n=8), each receiving 20 mg/kg Compound 4 subcutaneously per day starting at P21. From the age of P30, body weight and body temperature was measured daily. At the age of P30 and P40 animals were made to perform a forced exercise on an inclining treadmill for up to 15 minutes or reaching exhaustion whichever happened first. Retro-orbital blood collection (for plasma) was performed after each exercise session for L-Lactic acid level analysis using an enzymatic reaction (biochemical) method with colorimetric read out. The mice were sacrificed and necropsied at P45 or upon reaching a humane endpoint as determined by body conditioning and neurological scoring method developed by Jackson Laboratory for this animal model. Terminal plasma was collected via cardiocentesis post-euthanasia for mitokine analysis (GDF-15 and FGF-21) using an ELISA kit (Abcam: ab216947, ab212160). The manufacturer protocol was followed to generate a standard curve. Plasma was diluted 1:5 in phosphate buffered saline for the ELISA.
Statistical analysis. Kaplan Meier plot followed by chi squared test & two-way ANOVA followed by Dunnett's multiple comparisons test were performed using GraphPad Prism version 10.0.0, GraphPad Software (Boston, Massachusetts) (www.graphpad.com).

[3] = test system: Ndufs4-KO mouse model of Leigh syndrome; test: Survival study in Ndufs4-KO mouse model of Leigh syndrome; settings: Ndufs4-KO mice
Experimental: Study design. A survival study was performed to test Compound 4 in a whole body (WB)-Ndufs4-KO mouse model of Leigh syndrome (B6.129S4-Ndufs4^tm1.1Rpa/J; JAX Stock #027058; “Ndufs4-KO mice”). Defects in the non-enzymatic, nuclear-encoded protein, NDUFS4 (NADH dehydrogenase (ubiquinone) Fe—S protein 4), cause a Leigh-like phenotype in humans that results in death within 3-16 months after birth. Exon 2 of the mouse Ndufs4 gene has been excised in this knockout allele. Three groups of mice were included in this study: (1) wild-type (WT) C57BL/6J mice (n=12), each receiving 20 mg/kg Compound 4 subcutaneously once per day starting at postnatal age 21 days (P21); (2) Ndufs4-KO mice (homozygous knock outs (“HOM”)) (“HOM Vehicle”) (n=9), each receiving vehicle (5% Kolliphor-ELP in 1×PBS at a dosage of 10 mL/kg/day) subcutaneously once per day starting at P21; and (3) Ndufs4-KO mice (“HOM Comp. 4, 20 mg/kg”) (n=13), each receiving 20 mg/kg Compound 4 subcutaneously per day starting at P21. All studies were performed under the approved IACUC protocol at Jackson Laboratories (Bar Harbor, ME). The mice were sacrificed and necropsied upon reaching a humane endpoint as determined by body conditioning and neurological scoring method developed by Jackson Laboratory for this animal model. Terminal plasma was collected via cardiocentesis post euthanasia for future analysis.
Statistical analysis. Kaplan Meier plot followed by chi squared test were performed using GraphPad Prism version 10.0.0, GraphPad Software (Boston, Massachusetts) (www.graphpad.com).

[4] = 20 mg/kg SC daily, terminal plasma, FIG. 24C

With `CC1=C(C)C(=O)C(CC[C@@](C)(O)COCCC[Si](C)(C)C)=C(C)C1=O` [Compound 3] the “uptake to plasma and clearance rate, mouse versus rat” value ([1]; 20 mg/kg SC mouse vs 10 mg/kg SC rat (60 mg/m^2), 30 minutes to 24 hours, FIG. 17) was “roughly equivalent” and the tolerability ([1]; rat, 10 mg/kg SC, 5 daily doses) was “well tolerated”.
With `CC1=C(C)C(=O)C(CC[C@](C)(O)CCCCCCCCC(F)(F)F)=C(C)C1=O` [Compound 4] the survival proportion ([2]; 20 mg/kg SC daily from P21 until P46, vs vehicle, FIG. 24A) was “improved survival proportion”, the “exercise-induced lactic acidosis (plasma lactate)” value ([2]; 20 mg/kg SC daily, forced exercise at P30 and P40, FIG. 24B) was “mitigated exercise-induced lactic acidosis” and the “plasma FGF-21” value [2, 4] was “normalizing trends”. The “plasma GDF-15” value [2, 4] was “significantly normalized”, the “effect on survival, Gehan Breslow-Wilcoxon test P” value ([3]; 20 mg/kg SC daily from P21) was under 0.0001 and the “effect on survival, logrank test P” value ([3]; 20 mg/kg SC daily from P21) was under 0.0001. For the same compound, the survival ([3]; 20 mg/kg SC once per day from P21, vs vehicle, FIG. 23) was “significantly improved survival”.
